Data as given in patent publication US20190167676A1, “METHODS FOR IMPROVING RESISTANCE TO SKELETAL MUSCLE FATIGUE” (Cytokinetics, Inc., priority 2012, published 2019).

Key:
[1] = test system: patients with peripheral artery disease and claudication; test: Bilateral heel raise test, Phase II study; format: in vivo, human
Experimental: (§1) This study was a double-blind, randomized, placebo-controlled, three-period cross-over, hypothesis generating Phase II study in patients with peripheral artery disease and claudication. […] Secondary objectives included (a) evaluation and characterization of the relationship, if any, between the doses and plasma concentrations of Compound A and its pharmacodynamic effects, and (b) evaluation of the safety and tolerability of Compound A administered as single doses.
Single doses of each of 375 mg Compound A, 750 mg Compound A and placebo were administered in random order with a 6 to 10 day wash out between each dose. […] Results were analyzed using a repeated-measures ANCOVA with treatment, sequence, period, baseline, and patient in the model. […]
In the bilateral heel raise test, the lateral aspect of the ankle on the dominant leg was instrumented with an electromechanical goniometer connected to a PC-based data collection system to monitor and record ankle angle position and range of motion (Noraxon U.S.A., Inc., Scottsdale, Ariz.). […] The total number of heel raises, time, and a calculated index of work performed were assessed from the beginning of test to the onset of claudication and to maximal exercise. An index of work performed was calculated as follows: Heel Raise Work Index (HRWI)=(sinθ°*foot length)*body mass.

[2] = test system: patients with peripheral artery disease and claudication; test: Safety and tolerability, Phase II study; format: in vivo, human
Experimental: as §1
Single doses of each of 375 mg Compound A, 750 mg Compound A and placebo were administered in random order with a 6 to 10 day wash out between each dose. […] Assessments include 1) Bilateral Heel Raise Test (as described below) using electrogoniometry at 3 and 6 hours after dosing, and 2) 6-Minute Walk Test at 4 hours after dosing. Results were analyzed using a repeated-measures ANCOVA with treatment, sequence, period, baseline, and patient in the model. In the event of model assumption violations, non-parametric methods were utilized

[3] = target: T1, fast skeletal myofibrils (Homo sapiens, UniProt P02585); details: cited from earlier work
T1 construct: from tissue; host or cells: fast skeletal muscle myofibrils

[4] = target: T2, myofibrils from cardiac muscle (Homo sapiens, UniProt P63316); details: cited from earlier work
T2 construct: from tissue; host or cells: cardiac muscle myofibrils

[5] = test system: healthy rats; test: Rotarod running assay; format: in vivo, rat; details: for Run time (s) mean ± SEM: 30 minutes prior
Experimental: Female Sprague Dawley rats (210-260 g) were obtained from Charles River Laboratories and acclimated in the test facility for a minimum of six days prior to the start of the study. All rats were trained the day prior to compound administration. Training consisted of placing the rats on the rotating drum (rod), starting at a low constant speed (10 RPM). The rats were acclimated to walk on the drum for 5 minutes before resting. A second training session of an increasing speed from 14-16 RPM was initiated after all rats in the experimental group had finished the first training session. […] On the day of the experiment animals were dosed thirty minutes prior to start of test. The test began with a 5 minute primer session, whereby animals were run at an increasing speed from 14-16 RPM over 5 minutes. Rats were then run at a constantly accelerating rate from 12 RPM to 25 RPM over the course of 10 minutes. […] Time to fall was recorded, with the test being terminated at 900 seconds. Compound A was administered via oral gavage 30 minutes prior to assessment. Each dose was formulated as a suspension containing 0.2% Tween 80, 0.5% HPMC and water. Dose volume was 5 mL/kg. Vehicle (0.2% Tween 80, 0.5% HPMC and water) was administered similarly. Control treatments were chosen based on association with amelioration of central fatigue (caffeine, Davis 2003), muscular fatigue (creatine, Boyadjiev, 2007) and dual central/muscular fatigue (phosphoserine, […] 1976).

[6] = test system: skinned fast skeletal muscle fibers from rabbit psoas muscle; details: cited from earlier work
[7] = target: fast skeletal troponin (Homo sapiens, UniProt P02585); details: isothermal titration calorimetry; cited from earlier work
[8] = test system: skinned human vastus lateralis fast fibers; details: skinned fast fibers from muscle biopsies; cited from earlier work
[9] = test system: rat plantarflexor muscles; test: Rat plantar flexor force and power in situ; format: in vivo
Excerpt: Rats were placed under anesthesia using isoflurane and the sciatic nerve of the experimental leg exposed. The rat was then placed on the platform of an Aurora in-situ muscle analysis rig (806C), maintained at body temperature via a circulating water system. The knee was immobilized in a clamp between two sharpened screws and the foot attached securely to the footplate of a force transducer (Aurora Scientific, Ontario, Canada) using laboratory tape. The muscle was stimulated directly via the sciatic nerve. For isolation of the nerve, a 1 cm incision was made at the upper thigh and the overlying muscle was dissected to expose an approximate 5 mm stretch of the sciatic nerve. This was then dissected free of surrounding connective tissue and a pair of stainless steel needle electrodes (0.10 mm) were hooked around the exposed nerve. The peroneal branch was severed to remove innervation to the plantar-extensor muscle groups. Muscle contractile properties were assessed by applying an electrical current to the nerve and recording the force generated by the muscle via a servomotor. Isokinetic contractile properties were assessed as force generated during a pre-programmed movement of the footplate. Footplate movements were 0.7 radians in size ([…]).
Solutions of Compound A (50% PEG300/10% EtOH/40% cavitron formulation) were administered via a femoral vein catheter as a single slow bolus over a 2 min period, with a maximal dosage volume of 5 ml/Kg. During the experiment, blood was drawn via the tail vein for compound concentration analysis. At the end of each assay, the length and weight of the muscle was recorded, and measured force normalized to the mass of the muscle (N/g).
Compound A increased force generation throughout the curve to generate a total of 55% more work over the 300 second period, while maintaining a similar profile to that of the vehicle.
The same protocol was repeated with a second skeletal muscle troponin activator, 1-((1R)-1-methylpropyl)-6-chloro-7-pyrazolylimidazo[4,5-b]pyridin-2-ol (Compound B). Compound B and analogous skeletal muscle troponin activators are disclosed in U.S. Pat. No. 7,989,469. […] 0.7 radian displacement and stimulation frequency calculated to provide 50% of maximum isokinetic tension. Compound B maintained force generation throughout the curve, at almost 50% of vehicle stimulation frequency, to generate the same total work over the 300 second period, while maintaining a similar profile to that of the vehicle.

T1 sequence (P02585 whole entry): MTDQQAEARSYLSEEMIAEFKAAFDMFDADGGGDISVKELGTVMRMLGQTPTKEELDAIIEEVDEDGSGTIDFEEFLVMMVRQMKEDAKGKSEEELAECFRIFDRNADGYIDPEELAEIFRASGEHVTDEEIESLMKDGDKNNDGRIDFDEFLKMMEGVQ
T1 sequence (P48788 whole entry partner): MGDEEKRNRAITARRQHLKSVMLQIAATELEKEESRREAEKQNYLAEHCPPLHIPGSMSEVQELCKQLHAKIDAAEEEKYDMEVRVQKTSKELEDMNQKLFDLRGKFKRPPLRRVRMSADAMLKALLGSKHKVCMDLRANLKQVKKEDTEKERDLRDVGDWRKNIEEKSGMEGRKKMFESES
T1 sequence (P45378 whole entry partner): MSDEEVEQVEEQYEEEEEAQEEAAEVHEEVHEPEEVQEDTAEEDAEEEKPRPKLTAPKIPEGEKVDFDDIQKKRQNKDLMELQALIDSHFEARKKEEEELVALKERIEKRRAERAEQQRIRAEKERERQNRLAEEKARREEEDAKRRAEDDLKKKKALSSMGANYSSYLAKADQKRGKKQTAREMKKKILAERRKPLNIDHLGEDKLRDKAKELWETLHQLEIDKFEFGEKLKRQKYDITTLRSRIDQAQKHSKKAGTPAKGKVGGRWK
Sequence of fast skeletal troponin (P02585 whole entry): as the sequence (P02585 whole entry) above
Sequence of fast skeletal troponin (P48788 whole entry partner): as the sequence (P48788 whole entry partner) above
Sequence of fast skeletal troponin (P45378 whole entry partner): as the sequence (P45378 whole entry partner) above

C#Cc1cnc2nc(O)n(C(CC)CC)c2n1 [Compound A, 6-ethynyl-1-(pentan-3-yl)-1H-imidazo[4,5-b]pyrazin-2-ol]
relationship between plasma concentrations and outcomes in the Heel Raise Test ([1]; PK/PD analysis, FIG. 14): strong positive relationship
calf muscle performance by heel raise testing ([1]; single doses 375, 500, 750 mg, 3 and 6 hours after dosing): increased calf muscle performance
adverse events ([2]; 750 mg single dose): adverse events in two patients
adverse events vs dose ([2]; single doses 375-750 mg): Dose related adverse events, particularly dizziness and others related to walking
myosin ATPase relationship to Ca2+ concentration [3]: leftward-shift
effect in myofibrils [4]: little or no effect
Run time (s) mean ± SEM ([5]; 0.3 mg/kg oral gavage): 301 ± 36 s
Run time (s) mean ± SEM ([5]; 1 mg/kg oral gavage): 334 ± 29 s
Run time (s) mean ± SEM ([5]; 3 mg/kg oral gavage): 389 ± 65 s
change of running time ([5]; 3 mg/kg, maximum dose tested): more than a doubling of running time
force-calcium relationship [6]: leftward-shift of the force-calcium relationship
Kd [7]: 0.04 µM
force-calcium relationship [8]: dramatically left-shifts
isokinetic force frequency relationship ([9]; at 3.1 radians/s): increased in the submaximal range in a dose dependent manner
force-velocity relationship ([9]; at 30 Hz): increased across all velocities in a dose and velocity dependent manner
power output ([9]; corresponding to force velocities at 30 Hz): dose dependent increase
isometric force frequency relationship ([9]; in situ): increased in the submaximal range in a dose dependent manner
more total work over the 300 second period ([9]; isokinetic fatigue protocol, 1 flexion per second at 3.1 radians/s, 30 Hz, vs vehicle): 55%
